Assay results as given in the supplement of paper PMC10307832.

How the values were obtained:
Assay in all cases: relative viability (nuclei count vs DMSO), 5 days (fraction); higher = more cells survive
[1] = tested on: A-427
In short: (§1)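 Relative viability is defined as nuclei in treated wells over nuclei in vehicle wells. Duplicate plates were run and medians reported. Lung cancer cell lines in 1536-well plates were dosed by pin tool one day after seeding, with one drug or with a fixed anchor-drug dose plus five library-drug doses (not always all listed) in √10 steps, and nuclei were counted after 5 days.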

[2] = tested on: COR-L 105
In short: as §1

[3] = tested on: EPLC-272H
In short: as §1

[4] = tested on: HCC-366
In short: as §1

[5] = tested on: HCC-78
In short: as §1

[6] = tested on: HOP-62
In short: as §1

[7] = tested on: LC-2-ad
In short: as §1

[8] = tested on: LCLC-97TM1
In short: as §1

[9] = tested on: LU99A
In short: as §1

[10] = tested on: LXF-289
In short: as §1

[11] = tested on: NCI-H1755
In short: as §1

[12] = tested on: NCI-H1792
In short: as §1

[13] = tested on: NCI-H1793
In short: as §1

[14] = tested on: NCI-H1915
In short: as §1

[15] = tested on: NCI-H1944
In short: as §1

[16] = tested on: NCI-H1975
In short: as §1

[17] = tested on: NCI-H2085
In short: as §1

[18] = tested on: NCI-H2170
In short: as §1

[19] = tested on: NCI-H358
In short: as §1

[20] = tested on: NCI-H460
In short: as §1

[21] = tested on: SK-LU-1
In short: as §1

[22] = tested on: UMC-11
In short: as §1

Oc1nc(-c2ccc(C(F)(F)F)cc2)nc2c1CSCC2 [XAV939] + Cc1nc(NC(=O)N2CCC[C@H]2C(N)=O)sc1-c1ccnc(C(C)(C)C(F)(F)F)c1 [Alpelisib] (partner 2 µM)
relative viability ([1]; first compound 0.08 µM): 1.12 | relative viability ([1]; first compound 0.253 µM): 1.03 | relative viability ([1]; first compound 0.8 µM): 1.03 | relative viability ([1]; first compound 2.53 µM): 1.02 | relative viability ([2]; first compound 0.08 µM): 1.14 | relative viability ([2]; first compound 0.253 µM): 0.867 | relative viability ([2]; first compound 0.8 µM): 0.952 | relative viability ([2]; first compound 2.53 µM): 0.576 | relative viability ([3]; first compound 0.08 µM): 0.958 | relative viability ([3]; first compound 0.253 µM): 0.863 | relative viability ([3]; first compound 0.8 µM): 0.908 | relative viability ([3]; first compound 2.53 µM): 0.889 | relative viability ([4]; first compound 0.08 µM): 0.535 | relative viability ([4]; first compound 0.253 µM): 0.308 | relative viability ([4]; first compound 0.8 µM): 0.446 | relative viability ([4]; first compound 2.53 µM): 0.389 | relative viability ([5]; first compound 0.08 µM): 0.35 | relative viability ([5]; first compound 0.253 µM): 0.248 | relative viability ([5]; first compound 0.8 µM): 0.375 | relative viability ([5]; first compound 2.53 µM): 0.273 | relative viability ([6]; first compound 0.08 µM): 1.02 | relative viability ([6]; first compound 0.253 µM): 0.54 | relative viability ([6]; first compound 0.8 µM): 0.673 | relative viability ([6]; first compound 2.53 µM): 0.69 | relative viability ([7]; first compound 0.08 µM): 0.901 | relative viability ([7]; first compound 0.253 µM): 0.711 | relative viability ([7]; first compound 0.8 µM): 0.848 | relative viability ([7]; first compound 2.53 µM): 0.804 | relative viability ([8]; first compound 0.08 µM): 0.256 | relative viability ([8]; first compound 0.253 µM): 0.232 | relative viability ([8]; first compound 0.8 µM): 0.252 | relative viability ([8]; first compound 2.53 µM): 0.243 | relative viability ([9]; first compound 0.08 µM): 0.501 | relative viability ([9]; first compound 0.253 µM): 0.579 | relative viability ([9]; first compound 0.8 µM): 0.494 | relative viability ([9]; first compound 2.53 µM): 0.4 | relative viability ([10]; first compound 0.08 µM): 1.04 | relative viability ([10]; first compound 0.253 µM): 0.996 | relative viability ([10]; first compound 0.8 µM): 1.01 | relative viability ([10]; first compound 2.53 µM): 1.01 | relative viability ([11]; first compound 0.08 µM): 0.895 | relative viability ([11]; first compound 0.253 µM): 0.808 | relative viability ([11]; first compound 0.8 µM): 0.888 | relative viability ([11]; first compound 2.53 µM): 0.735 | relative viability ([12]; first compound 0.08 µM): 0.924 | relative viability ([12]; first compound 0.253 µM): 0.667 | relative viability ([12]; first compound 0.8 µM): 0.671 | relative viability ([12]; first compound 2.53 µM): 0.594 | relative viability ([13]; first compound 0.08 µM): 0.589 | relative viability ([13]; first compound 0.253 µM): 0.59 | relative viability ([13]; first compound 0.8 µM): 0.697 | relative viability ([13]; first compound 2.53 µM): 0.708 | relative viability ([14]; first compound 0.08 µM): 1.08 | relative viability ([14]; first compound 0.253 µM): 1.07 | relative viability ([14]; first compound 0.8 µM): 1.03 | relative viability ([14]; first compound 2.53 µM): 1.08 | relative viability ([15]; first compound 0.08 µM): 0.939 | relative viability ([15]; first compound 0.253 µM): 0.765 | relative viability ([15]; first compound 0.8 µM): 0.751 | relative viability ([15]; first compound 2.53 µM): 0.786 | relative viability ([16]; first compound 0.08 µM): 0.619 | relative viability ([16]; first compound 0.253 µM): 0.573 | relative viability ([16]; first compound 0.8 µM): 0.566 | relative viability ([16]; first compound 2.53 µM): 0.445 | relative viability ([17]; first compound 0.08 µM): 0.993 | relative viability ([17]; first compound 0.253 µM): 0.898 | relative viability ([17]; first compound 0.8 µM): 0.814 | relative viability ([17]; first compound 2.53 µM): 0.737 | relative viability ([18]; first compound 0.08 µM): 0.855 | relative viability ([18]; first compound 0.253 µM): 0.612 | relative viability ([18]; first compound 0.8 µM): 0.654 | relative viability ([18]; first compound 2.53 µM): 0.578 | relative viability ([19]; first compound 0.08 µM): 0.815 | relative viability ([19]; first compound 0.253 µM): 0.671 | relative viability ([19]; first compound 0.8 µM): 0.915 | relative viability ([19]; first compound 2.53 µM): 0.591 | relative viability ([20]; first compound 0.08 µM): 0.679 | relative viability ([20]; first compound 0.253 µM): 0.36 | relative viability ([20]; first compound 0.8 µM): 0.53 | relative viability ([20]; first compound 2.53 µM): 0.359 | relative viability ([21]; first compound 0.08 µM): 0.993 | relative viability ([21]; first compound 0.253 µM): 0.883 | relative viability ([21]; first compound 0.8 µM): 1 | relative viability ([21]; first compound 2.53 µM): 1.07 | relative viability ([22]; first compound 0.08 µM): 1.2 | relative viability ([22]; first compound 0.8 µM): 0.971 | relative viability ([22]; first compound 2.53 µM): 0.64
